# Reference: patent US20210253575A1, “PYRROLIDINE AMINE COMPOUNDS FOR THE TREATMENT OF AUTOIMMUNE DISEASE” (Hoffmann-La Roche Inc., priority 2018, published 2021)
# pIC50: −log10 of the molar value.
# Molecular target: T1, human TLR7 (Homo sapiens, UniProt Q9NYK1)
# T1 sequence (Q9NYK1 27-1049): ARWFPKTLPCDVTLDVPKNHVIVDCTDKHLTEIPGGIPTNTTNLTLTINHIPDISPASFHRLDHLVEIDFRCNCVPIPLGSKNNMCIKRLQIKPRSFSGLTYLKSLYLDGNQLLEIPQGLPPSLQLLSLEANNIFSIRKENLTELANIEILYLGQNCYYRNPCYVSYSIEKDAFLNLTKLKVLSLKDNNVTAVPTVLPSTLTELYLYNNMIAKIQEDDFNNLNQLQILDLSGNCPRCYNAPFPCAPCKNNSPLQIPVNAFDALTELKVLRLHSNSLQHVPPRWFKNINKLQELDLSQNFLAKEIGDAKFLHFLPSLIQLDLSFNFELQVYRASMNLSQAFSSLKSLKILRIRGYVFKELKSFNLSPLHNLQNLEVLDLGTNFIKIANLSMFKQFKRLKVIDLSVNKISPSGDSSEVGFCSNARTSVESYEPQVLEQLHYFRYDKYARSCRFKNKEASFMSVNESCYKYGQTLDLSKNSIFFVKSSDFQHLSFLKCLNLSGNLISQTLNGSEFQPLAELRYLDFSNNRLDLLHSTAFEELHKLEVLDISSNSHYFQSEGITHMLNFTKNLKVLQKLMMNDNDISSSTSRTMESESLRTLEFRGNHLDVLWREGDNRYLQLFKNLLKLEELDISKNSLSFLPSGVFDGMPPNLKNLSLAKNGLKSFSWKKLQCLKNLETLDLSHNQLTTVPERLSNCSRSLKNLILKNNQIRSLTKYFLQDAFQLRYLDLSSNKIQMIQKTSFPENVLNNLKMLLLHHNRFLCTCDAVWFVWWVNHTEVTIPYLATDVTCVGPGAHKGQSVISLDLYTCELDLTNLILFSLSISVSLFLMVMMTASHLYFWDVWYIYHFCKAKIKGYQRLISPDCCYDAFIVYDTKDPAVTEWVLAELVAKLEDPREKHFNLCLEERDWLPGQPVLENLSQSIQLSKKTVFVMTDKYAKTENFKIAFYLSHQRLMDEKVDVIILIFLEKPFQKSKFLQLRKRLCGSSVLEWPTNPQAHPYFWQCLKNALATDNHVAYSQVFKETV
# Assay: HEK293-Blue-hTLR-7 cells assay (SEAP reporter, R848 stimulation)
# Type: cell-based
# Details: HEK293-Blue-hTLR7 cells, R848 ligand, 20 hrs incubation
# Method: The following tests were carried out in order to determine the activity of the compounds of formula (I) in HEK293-Blue-hTLR-7/8/9 cells assay.
# HEK293-Blue-hTLR-7 Cells Assay:
# A stable HEK293-Blue-hTLR-7 cell line was purchased from InvivoGen (Cat. #: hkb-htlr7, San Diego, Calif., USA). These cells were originally designed for studying the stimulation of human TLR7 by monitoring the activation of NF-κB. A SEAP (secreted embryonic alkaline phosphatase) reporter gene was placed under the control of the IFN-β minimal promoter fused to five NF-κB and AP-1-binding sites. The SEAP was induced by activating NF-κB and AP-1 via stimulating HEK-Blue hTLR7 cells with TLR7 ligands. Therefore the reporter expression was declined by TLR7 antagonist under the stimulation of a ligand, such as R848 (Resiquimod), for incubation of 20 hrs. The cell culture supernatant SEAP reporter activity was determined using QUANTI-Blue™ kit (Cat. #: rep-qb1, Invivogen, San Diego, Ca, USA) at a wavelength of 640 nm, a detection medium that turns purple or blue in the presence of alkaline phosphatase.
# HEK293-Blue-hTLR7 cells were incubated at a density of 250,000-450,000 cells/mL in a volume of 170 μL in a 96-well plate in Dulbecco's Modified Eagle's medium (DMEM) containing 4.5 g/L glucose, 50 U/mL penicillin, […], […], 2 mM L-glutamine, 10% (v/v) heat-inactivated fetal bovine serum with addition of 20 μL test compound in a serial dilution in the presence of final DMSO at 1% and 10 μL of 20 uM R848 in above DMEM, perform incubation under 37° C. in a CO2 incubator for 20 hrs. Then 20 μL of the supernatant from each well was incubated with 180 μL Quanti-blue substrate solution at 37° C. for 2 hrs and the absorbance was read at 620-655 nm using a spectrophotometer. The signalling pathway that TLR7 activation leads to downstream NF-κB activation has been widely accepted, and therefore similar reporter assay was modified for evaluating TLR7 antagonist.
row,SMILES,pIC50
1,"N#Cc1ccc(N2C[C@H](CN3CCC(N4CCNCC4)CC3)[C@@H](C(F)(F)F)C2)c2cccnc12 [Example 52, 5-[(3S,4R)-3-[(4-piperazin-1-yl-1-piperidyl)methyl]-4-(trifluoromethyl)pyrrolidin-1-yl]quinoline-8-carbonitrile]",7.41
2,"N#Cc1ccc(N2C[C@H](CN3CC4(CC(N)C4)C3)[C@@H](C(F)(F)F)C2)c2cccnc12 [Example 53, 5-[(3S,4R)-3-[(6-Amino-2-azaspiro[3.3]heptan-2-yl)methyl]-4-(trifluoromethyl)pyrrolidin-1-yl]quinoline-8-carbonitrile]",6.94
3,"N#Cc1ccc(N2C[C@H](CN3CCC4(CCNC4)CC3)[C@@H](C(F)(F)F)C2)c2cccnc12 [Example 54, 5-[(3S,4R)-3-(2,8-Diazaspiro[4.5]decan-8-ylmethyl)-4-(trifluoromethyl)pyrrolidin-1-yl]quinoline-8-carbonitrile]",7.04
4,"N#Cc1ccc(N2C[C@H](CN3CCC4(CCCNC4)CC3)[C@@H](C(F)(F)F)C2)c2cccnc12 [Example 55, 5-[(3S,4R)-3-(2,9-Diazaspiro[5.5]undecan-9-ylmethyl)-4-(trifluoromethyl)pyrrolidin-1-yl]quinoline-8-carbonitrile]",6.95
5,"N#Cc1ccc(N2C[C@H](CN3CCC4(CCNCC4)C3)[C@@H](C(F)(F)F)C2)c2cccnc12 [Example 56, 5-[(3S,4R)-3-(2,8-Diazaspiro[4.5]decan-2-ylmethyl)-4-(trifluoromethyl)pyrrolidin-1-yl]quinoline-8-carbonitrile]",6.95
6,"N#Cc1ccc(N2C[C@H](CN3CCCC4(CCNCC4)C3)[C@@H](C(F)(F)F)C2)c2cccnc12 [Example 57, 5-[(3S,4R)-3-(2,9-Diazaspiro[5.5]undecan-2-ylmethyl)-4-(trifluoromethyl)pyrrolidin-1-yl]quinoline-8-carbonitrile]",7.14
7,"N#Cc1ccc(N2CC(CN3CCC(N4CCOCC4)CC3)C3(CC3)C2)c2nccnc12 (stereo not drawn) [Example 58, 8-[7-[(4-Morpholino-1-piperidyl)methyl]-5-azaspiro[2.4]heptan-5-yl]quinoxaline-5-carbonitrile]",6.50
8,"N#Cc1ccc(N2C[C@H](CN3CCNCC3)[C@@H](C(F)(F)F)C2)c2nccnc12 [Example 59, 8-[(3S,4R)-3-(Piperazin-1-ylmethyl)-4-(trifluoromethyl)pyrrolidin-1-yl]quinoxaline-5-carbonitrile]",7.74
9,"N#Cc1ccc(N2C[C@H](CN3CCC(N4CCCC4)CC3)[C@@H](C(F)(F)F)C2)c2nccnc12 [Example 60, 8-[(3S,4R)-3-[(4-Pyrrolidin-1-yl-1-piperidyl)methyl]-4-(trifluoromethyl)pyrrolidin-1-yl]quinoxaline-5-carbonitrile]",7.54
10,"N#Cc1ccc(N2C[C@H](CN3CCC(N4CCCCC4)CC3)[C@@H](C(F)(F)F)C2)c2nccnc12 [Example 61, 8-[(3S,4R)-3-[[4-(1-Piperidyl)-1-piperidyl]methyl]-4-(trifluoromethyl)pyrrolidin-1-yl]quinoxaline-5-carbonitrile]",7.66
11,"N#Cc1ccc(N2C[C@H](CN3CCC(N4CCCCCC4)CC3)[C@@H](C(F)(F)F)C2)c2nccnc12 [Example 62, 8-[(3S,4R)-3-[[4-(Azepan-1-yl)-1-piperidyl]methyl]-4-(trifluoromethyl)pyrrolidin-1-yl]quinoxaline-5-carbonitrile]",7.47
12,"N#Cc1ccc(N2C[C@H](CN3C4CCC3CC(N)C4)[C@@H](C(F)(F)F)C2)c2nccnc12 (stereo partly drawn) [Example 63, 8-[(3S,4R)-3-[(3-amino-8-azabicyclo[3.2.1]octan-8-yl)methyl]-4-(trifluoromethyl)pyrrolidin-1-yl]quinoxaline-5-carbonitrile]",7.24
13,"N#Cc1ccc(N2C[C@H](CN3CCC(N)C(F)(F)C3)[C@@H](C(F)(F)F)C2)c2nccnc12 (stereo partly drawn) [Example 64, 8-[(3S,4R)-3-[(4-amino-3,3-difluoro-1-piperidyl)methyl]-4-(trifluoromethyl)pyrrolidin-1-yl]quinoxaline-5-carbonitrile]",7.44
14,"N#Cc1ccc(N2CC(CN3CCC4(CCCCN4)CC3)C3(CC3)C2)c2nccnc12 (stereo not drawn) [Example 65, 8-[7-(1,9-Diazaspiro[5.5]undecan-9-ylmethyl)-5-azaspiro[2.4]heptan-5-yl]quinoxaline-5-carbonitrile]",6.97
15,"N#Cc1ccc(N2CC(CN3CCC4NCC4C3)C3(CC3)C2)c2nccnc12 (stereo not drawn) [Example 66, 8-[7-(3,7-Diazabicyclo[4.2.0]octan-3-ylmethyl)-5-azaspiro[2.4]heptan-5-yl]quinoxaline-5-carbonitrile]",7.20
16,"N#Cc1ccc(N2CC(CN3CCOC4(CCNCC4)C3)C3(CC3)C2)c2nccnc12 (stereo not drawn) [Example 67, 8-[7-(1-Oxa-4,9-diazaspiro[5.5]undecan-4-ylmethyl)-5-azaspiro[2.4]heptan-5-yl]quinoxaline-5-carbonitrile]",6.88
17,"N#Cc1ccc(N2CC(CN3CCC(N)CC3)C3(CC3)C2)c2nccnc12 (stereo not drawn) [Example 68, 8-[7-[(4-Amino-1-piperidyl)methyl]-5-azaspiro[2.4]heptan-5-yl]quinoxaline-5-carbonitrile]",7.12
18,"N#Cc1ccc(N2C[C@H](CN3CCCC(C(N)=O)C3)[C@@H](C(F)(F)F)C2)c2nccnc12 (stereo partly drawn) [Example 69, 1-[[(3S,4R)-1-(S-cyanoquinoxalin-5-yl)-4-(trifluoromethyl)pyrrolidin-3-yl]methyl]piperidine-3-carboxamide]",6.87
19,"N#Cc1ccc(N2C[C@H](CN3CCC4(CC3)CNCCO4)[C@@H](C(F)(F)F)C2)c2nccnc12 [Example 70, 8-[(3S,4R)-3-(1-oxa-4,9-diazaspiro[5.5]undecan-9-ylmethyl)-4-(trifluoromethyl)pyrrolidin-1-yl]quinoxaline-5-carbonitrile]",7.92
20,"N#Cc1ccc(N2C[C@H](CNC3CCNCC3)[C@@H](C(F)(F)F)C2)c2nccnc12 [Example 71, 8-[(3S,4R)-3-[(4-piperidylamino)methyl]-4-(trifluoromethyl)pyrrolidin-1-yl]quinoxaline-5-carbonitrile]",7.41
21,"C[C@H]1CN(C[C@H]2CN(c3ccc(C#N)c4nccnc34)C[C@@H]2C(F)(F)F)CC[C@H]1N [Example 72, 8-[(3S,4R)-3-[[(3S,4R)-4-amino-3-methyl-1-piperidyl]methyl]-4-(trifluoromethyl)pyrrolidin-1-yl]quinoxaline-5-carbonitrile]",7.89
22,"N#Cc1ccc(N2C[C@H](CN3CC4CCC(C3)C4N)[C@@H](C(F)(F)F)C2)c2nccnc12 (stereo partly drawn) [Example 73, 8-[(3S,4R)-3-[(8-amino-3-azabicyclo[3.2.1]octan-3-yl)methyl]-4-(trifluoromethyl)pyrrolidin-1-yl]quinoxaline-5-carbonitrile]",7.70
23,"N#Cc1ccc(N2C[C@H](CN3CCC(CN)CC3)[C@@H](C(F)(F)F)C2)c2nccnc12 [Example 74, 8-[(3S,4R)-3-[[4-(aminomethyl)-1-piperidyl]methyl]-4-(trifluoromethyl)pyrrolidin-1-yl]quinoxaline-5-carbonitrile]",7.55
24,"CC1(CN)CCCN(C[C@H]2CN(c3ccc(C#N)c4nccnc34)C[C@@H]2C(F)(F)F)C1 (stereo partly drawn) [Example 75, 8-[(3S,4R)-3-[[3-(aminomethyl)-3-methyl-1-piperidyl]methyl]-4-(trifluoromethyl)pyrrolidin-1-yl]quinoxaline-5-carbonitrile]",7.59
